Measured values as given in patent US7348425B2, “Inhibitors of HCV replication” (Bristol-Myers Squibb Company, priority 2004, dated 2008).

Tests used:
[1] = biological target: T1, HCV NS5B RdRp genotype 1b (Hepatitis C virus genotype 1b, UniProt Q9WMX2); test: Modified HCV NS5B RdRp enzyme assay (with preincubation); type: biochemical
T1 construct: The protein was expressed with an 18 amino acid C-terminal truncation to enhance the solubility; made in house; host or cells: E. coli BL21 (DE3), pET21a
Outline: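 Seven-point IC50s were derived from SPA-based ³H-UTP incorporation after 4 h at 30 °C (Hepes pH 7.5, 2% DMSO). Compound was first mixed with 14 nM Δ18 NS5B genotype 1b enzyme. Then 0.2 nM polyA, 0.29 μM UTP and bead-bound oligo-dT12 (20 nM) were added.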

HCV replicon = HCV replicon FRET assay; type: cell-based; conditions: Hepatitis C virus; FRET assay; read-out: EC50
Outline: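 Replicon cells (± Renilla luciferase reporter) incubated with titrated compound at 37 °C; NS3 protease activity read by FRET peptide cleavage (20 uM EDANS/DABCYL substrate, 340/490 nm kinetic) or luciferase.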

[2] = modified method (with preincubation)

T1 sequence (Q9WMX2 2420-2992): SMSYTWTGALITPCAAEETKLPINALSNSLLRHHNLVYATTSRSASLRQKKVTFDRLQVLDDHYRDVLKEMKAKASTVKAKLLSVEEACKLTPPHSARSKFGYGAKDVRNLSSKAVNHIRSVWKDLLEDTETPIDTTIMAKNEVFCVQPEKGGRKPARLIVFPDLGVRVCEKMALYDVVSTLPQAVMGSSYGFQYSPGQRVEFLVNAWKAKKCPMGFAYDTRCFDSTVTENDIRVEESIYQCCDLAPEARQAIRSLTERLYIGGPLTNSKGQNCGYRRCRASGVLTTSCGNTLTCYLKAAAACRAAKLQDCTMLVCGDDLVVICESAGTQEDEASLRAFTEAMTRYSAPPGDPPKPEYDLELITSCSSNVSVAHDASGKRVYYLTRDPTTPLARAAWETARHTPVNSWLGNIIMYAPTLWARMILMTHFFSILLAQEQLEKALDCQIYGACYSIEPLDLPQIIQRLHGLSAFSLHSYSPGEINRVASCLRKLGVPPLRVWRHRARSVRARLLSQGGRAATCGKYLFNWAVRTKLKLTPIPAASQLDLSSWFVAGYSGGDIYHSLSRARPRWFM

SMILES | IC50 [1, 2] [nM] | EC50 (HCV replicon) [nM] | IC50 ([1]; preincubation protocol) [nM]
CN(C)S(=O)(=O)NC(=O)c1ccc2c(C3CCCCC3)c3n(c2c1)CC(C(=O)N1CCCOCC1)=Cc1ccccc1-3 | 20 to 1000 | 10 to 1000 | –
O=C(NS(=O)(=O)c1ccccc1)c1ccc2c(C3CCCCC3)c3n(c2c1)CCCc1ncccc1-3 | 20 to 1000 | 1000 to 10000 | –
Cn1c(C(=O)O)cc2cc(NC(=O)C3(NC(=O)c4ccc5c(C6CCCCC6)c6n(c5c4)CC(=O)Nc4ccccc4-6)CCCC3)ccc21 | 20 to 1000 | 10 to 1000 | –
Cc1nc2c(s1)CCCn1c-2c(C2CCCCC2)c2ccc(C(=O)O)cc21 | > 1000 | > 10000 | –
N#CC1C(=O)Cn2c(c(C3CCCCC3)c3ccc(C(=O)O)cc32)-c2ccccc21 (centres unmarked) | 20 to 1000 | > 10000 | –
CN(C)S(=O)(=O)NC(=O)c1ccc2c(C3CCCCC3)c3n(c2c1)C[C@@H](O)[C@@H](O)c1ccccc1-3 | > 1000 | 10 to 1000 | –
O=C(O)c1ccc2c(C3CCCCC3)c3n(c2c1)C(C(=O)N1CCOCC1)CNc1ccccc1-3 (centres unmarked) | – | 1000 to 10000 | > 1000
CN(C)CCN1C(=O)Cn2c(c(C3CCCCC3)c3ccc(C(=O)O)cc32)-c2ccccc21 | 20 to 1000 | 10 to 1000 | –
O=C1Cc2ccccc2-c2c(C3CCCCC3)c3ccc(C(=O)O)cc3n2C1 | 20 to 1000 | 1000 to 10000 | –
CC(C)NS(=O)(=O)NC(=O)c1ccc2c(C3CCCCC3)c3n(c2c1)CC(C(=O)N1CCOCC1)=Cc1ccccc1-3 | 20 to 1000 | 10 to 1000 | –
COC(=O)c1ccc2c(C3CCCCC3)c3n(c2c1)CC(C(=O)OCc1ccccc1)=Cc1ccccc1-3 [drawing 223] | > 1000 | 1000 to 10000 | –
O=C(O)c1ccc2c(C3CCCCC3)c3n(c2c1)CCOc1ncccc1-3 | 20 to 1000 | 1000 to 10000 | –
O=C(O)c1ccc2c(C3CCCCC3)c3n(c2c1)CC(C(=O)N1CCOCC1)=Cc1ccncc1-3 | 20 to 1000 | 1000 to 10000 | –
COC(=O)c1ccc2c(C3CCCCC3)c3n(c2c1)CCNc1ccccc1-3 | > 1000 | 10 to 1000 | –
CN(C)C(=O)NC(=O)c1ccc2c(C3CCCCC3)c3n(c2c1)CC(C(=O)N1CCOCC1)=Cc1ccccc1-3 | 20 to 1000 | 1000 to 10000 | –
O=C(O)c1ccc2c(C3CCCCC3)c3n(c2c1)CC(C(=O)N1CCCOCC1)=Cc1ccccc1-3 | 20 to 1000 | 10 to 1000 | –

SMILES | IC50 [1, 2] [nM] | EC50 (HCV replicon) [nM] | IC50 ([1]; preincubation protocol) [nM]
COC(=O)/C=C/c1ccc(NC(=O)C2(NC(=O)c3ccc4c(C5CCCCC5)c5n(c4c3)CCCc3ocnc3-5)CCCC2)cc1 | > 1000 | 1000 to 10000 | –
CC(=O)N1CCn2c(c(C3CCCCC3)c3ccc(C(=O)NS(=O)(=O)N(C)C)cc32)-c2ccccc21 | 20 to 1000 | 10 to 1000 | –
COC(=O)c1ccc2c(C3CCCCC3)c3n(c2c1)CC(C(=O)N1C[C@@H](C)N[C@@H](C)C1)=Cc1cc(F)ccc1-3 | – | 1000 to 10000 | 10 to 1000
COc1ccc2c(c1)CC(C(=O)N(C)CCO)Cn1c-2c(C2CCCCC2)c2ccc(C(=O)NS(=O)(=O)N(C)C)cc21 (centres unmarked) | – | 50 to 1000 | 10 to 1000
COc1ccc2c(c1)C=C(C(=O)N1CCC(O)CC1)Cn1c-2c(C2CCCCC2)c2ccc(C(=O)NS(=O)(=O)N(C)C)cc21 | – | 50 to 1000 | 10 to 1000
CCN(CC)C1CCN(C(=O)C2=Cc3ccccc3-c3c(C4CCCCC4)c4ccc(C(=O)NS(=O)(=O)N(C)C)cc4n3C2)C1 (centres unmarked) | 20 to 1000 | 10 to 1000 | –
O=C(NS(=O)(=O)C1CC1)c1ccc2c(C3CCCCC3)c3n(c2c1)CC=Cc1ncccc1-3 | 20 to 1000 | 1000 to 10000 | –
COC(=O)/C=C/c1ccc(NC(=O)C2(NC(=O)c3ccc4c(C5CCCCC5)c5n(c4c3)CC(=O)Nc3cccnc3-5)CCCC2)cc1 [drawing 159] | 20 to 1000 | < 100 | –
CN(C)S(=O)(=O)NC(=O)c1ccc2c(C3CCCCC3)c3n(c2c1)CCN(C(=O)OC(C)(C)C)c1ccccc1-3 | 20 to 1000 | 10 to 1000 | –
COC(=O)c1ccc2c(C3CCCCC3)c3n(c2c1)CC(N1CCOCC1)Cc1ccccc1-3 (centres unmarked) | > 1000 | 10 to 1000 | –
O=C(O)c1ccc2c(C3CCCCC3)c3n(c2c1)C=C(C(=O)N1CCOCC1)Cc1ccncc1-3 | > 1000 | > 10000 | –
COC(=O)C1=Cc2ccccc2-c2c(C3CCCCC3)c3ccc(C(=O)NS(=O)(=O)N(C)C)cc3n2C1 | 20 to 1000 | 10 to 1000 | –
COc1ccc2c(c1)C=C(C(=O)N(CCO)CCO)Cn1c-2c(C2CCCCC2)c2ccc(C(=O)NS(=O)(=O)N(C)C)cc21 | – | 50 to 1000 | < 20
CN(C)S(=O)(=O)NC(=O)c1ccc2c(C3CCCCC3)c3n(c2c1)CC(C(=O)N1CCOCC1)=Cc1ccncc1-3 | 20 to 1000 | 10 to 1000 | –
CN(C)S(=O)(=O)NC(=O)c1ccc2c(c1)N1C(O)c3cc(OCc4ccccc4)ccc3C1C2 (centres unmarked) | 20 to 1000 | 10 to 1000 | –
